3 compounds from patent publication US20160279095A1, “USE OF NUTRITIONAL COMPOSITIONS INCLUDING NATURAL VITAMIN E, AND POLYUNSATURATED FATTY ACID” (ABBOTT LABORATORIES, priority 2013, published 2016) can be followed below.

In the experiment the test system is Primary cortical neurons. The experiment is described as follows: DHA peroxidation in primary cortical neurons, MDA levels measured by LC-MS. The format is cell-based, Sprague-Dawley rat. The conditions noted are these: for MDA concentration (DHA peroxidation): by LCMS/MS. As for the experimental part: Primary cortical neurons from postnatal day 3-5 (P3-P5) Sprague-Dawley rat pup's brain were pretreated with/without natural vitamin E in the form of RRR-a-tocopherol (15 μM or 45 μM), and/or lutein (0.32 nM or 0.5 nM) individually and in combination for 12 hours. (Note that μM is used to refer to a micromolar concentration and nM is used to refer to a nanomolar concentration and concentrations refer to those reached in the test tubes containing the cortical neurons.) After 12 hours DHA (90 μM) was added for an additional 12 hours. After 12 hours samples were washed in PS and neurons were lysed. Peroxides generated from DHA and incorporated into the neuronal cell membrane were assessed by measuring the MDA levels using liquid chromatography-mass spectometry (LC-MS) method.

With `Cc1c(C)c2c(c(C)c1O)CC[C@@](C)(CCC[C@H](C)CCC[C@H](C)CCCC(C)C)O2` [RRR alpha tocopherol, RRR-alpha tocopherol], the “MDA concentration (DHA peroxidation)” value is “about 75%” (15 μM RRR alpha tocopherol pretreatment 12 hours, then DHA 90 μM 12 hours) and “about 57%” (45 μM RRR alpha tocopherol pretreatment 12 hours, then DHA 90 μM 12 hours, p<0.001).

For the compound `CC1=C[C@H](O)CC(C)(C)[C@H]1/C=C/C(C)=C/C=C/C(C)=C/C=C/C=C(C)/C=C/C=C(C)/C=C/C1=C(C)C[C@@H](O)CC1(C)C` [lutein], where the note is “lutein alone, without RRR alpha tocopherol, then DHA 90 μM”, the “effect on retarding DHA peroxidation” value is recorded as “essentially no effect”.

Take `CC/C=C\C/C=C\C/C=C\C/C=C\C/C=C\C/C=C\CCC(=O)O` [DHA, docosahexaenoic acid]: where the note is “DHA 90 μM for 12 hours, without either RRR alpha tocopherol or lutein”, the “MDA concentration (DHA peroxidation)” value is “about 110”.
